Patent US20230212131A1, “COLLAGEN 1 TRANSLATION INHIBITORS AND METHODS OF USE THEREOF” (Anima Biotech Inc., priority 2020, published 2023)

Test system: collagen 1 (COL1)
Assay: WI-38 collagen 1 inhibition assay
Format: cell-based, human
Details: Cellular EC50, WI-38 cells; values are classes of LogEC50
Description: All compounds were profiled for cellular potency in inhibition of collagen 1 (COL1) protein translation using a phenotypic screening platform.
WI-38 cells (ATCC® CCL-75™) were maintained in MEM EAGLE (NEAA) W. GLUTAMIN (Biological Industries, Cat. 06-1040-15-1A) containing 10% fetal bovine serum (FBS) and 1% Penicillin-Streptomycin Solution. To synchronize the cells (cell cycle synchronization) prior to induction of collagen synthesis, the cells were starved using DMEM-low glucose supplemented with 0.25% FBS for two hours and then without FBS for 24 hours. To induce collagen synthesis, the cells were treated with a collagen induction cocktail for the indicated time. Compounds were added with induction.
Cells in 96-well or 384-well plates were fixed for 20 min in 4% paraformaldehyde (PFA, ENCO, Cat. sc-281692). Following two washes with 1×PBS, cells were treated with hydrogen peroxide (Acros, Cat: 7722-84-1) for 10 minutes and then washed twice with 1×PBS. Cells were then incubated over-night at 4° C. with Anti-Collagen I (Sigma-Aldrich, Cat: C 2456) antibody and washed three times with 1×PBS. Cells were then incubated with a suitable secondary fluorescently-tagged antibody and nuclei stained with DAPI, for 1 hour, and then washed 3 times with 1×PBS.
Cell images were taken with Operetta (Perkin Elmer, USA), a wide-field fluorescence microscope at 20× magnification. After acquisition, the images were transferred to Columbus software (Perkin-Elmer) for image analysis. In Columbus, cells were identified by their nucleus, using the “Find Nuceli” module and cytoplasm was detected based on the secondary antibody channel. Subsequently, the fluorescent signal was enumerated in the identified cell region. Data was exported to a data analysis and visualization software, Tibco Spotfire, USA.

| SMILES | COL1 Efficacy (LogEC50) |
| --- | --- |
| CS(=O)(=O)N1CCN(C(=O)[C@H]2C[C@H](C(=O)Nc3nc(-c4ccccc4Cl)cs3)C2)CC1 [Compound 430, (1r,3r)-N-(4-(2-chlorophenyl)thiazol-2-yl)-3-(4-(methylsulfonyl)piperazine-1-carbonyl)cyclobutane-1-carboxamide] | + (+: >−5) |
| COc1cc(N2CCOCC2)ccc1C(=O)Nc1nc(-c2ccccc2Cl)cs1 [Compound 441, N-(4-(2-chlorophenyl)thiazol-2-yl)-2-methoxy-4-morpholinobenzamide] | ++ (++: −5 to −6) |
| CN(C)CC(=O)N1CCN(c2ccc(C(=O)Nc3nc(-c4ccccc4Cl)cs3)nc2)CC1 [Compound 443, N-(4-(2-chlorophenyl)thiazol-2-yl)-5-(4-(dimethylglycyl)piperazin-1-yl)picolinamide] | +++ (+++: <−6) |
| CN(C)CCC(=O)N1CCN(c2ccc(C(=O)Nc3nc(-c4ccccc4Cl)cs3)nc2)CC1 [Compound 444, N-(4-(2-chlorophenyl)thiazol-2-yl)-5-(4-(3-(dimethylamino)propanoyl)piperazin-1-yl)picolinamide] | +++ (+++: <−6) |
| O=C(Nc1nc(-c2ccccc2Cl)cs1)c1ccc(N2CCN(C(=O)CO)CC2)cn1 [Compound 445, N-(4-(2-chlorophenyl)thiazol-2-yl)-5-(4-(2-hydroxyacetyl)piperazin-1-yl)picolinamide] | +++ (+++: <−6) |
| O=C(Nc1nc(-c2ccccc2Cl)cs1)c1ccc(N2CCC(O)CC2)cn1 [Compound 446, N-(4-(2-chlorophenyl)thiazol-2-yl)-5-(4-hydroxypiperidin-1-yl)picolinamide] | +++ (+++: <−6) |
| COCc1ccccc1-c1csc(NC(=O)c2ccc(N3CCN(S(C)(=O)=O)CC3)cn2)n1 [Compound 447, N-(4-(2-(methoxymethyl)phenyl)thiazol-2-yl)-5-(4-(methylsulfonyl)piperazin-1-yl)picolinamide] | +++ (+++: <−6) |
| O=C(Nc1nc(-c2ccccc2Cl)cs1)c1ccc(N2CCC3(CC2)COC3)cn1 [Compound 448, N-(4-(2-chlorophenyl)thiazol-2-yl)-5-(2-oxa-7-azaspiro[3.5]nonan-7-yl)picolinamide] | +++ (+++: <−6) |
| COCC(=O)N1CC2(C1)CN(c1ccc(C(=O)Nc3nc(-c4ccccc4Cl)cs3)nc1)C2 [Compound 450, N-(4-(2-chlorophenyl)thiazol-2-yl)-5-(6-(2-methoxyacetyl)-2,6-diazaspiro[3.3]heptan-2-yl)picolinamide] | +++ (+++: <−6) |
| O=C(Nc1nc(-c2ccccc2Cl)cs1)c1ccc(N2CCN(C(=O)CCO)CC2)cn1 [Compound 455, N-(4-(2-chlorophenyl)thiazol-2-yl)-5-(4-(3-hydroxypropanoyl)piperazin-1-yl)picolinamide] | +++ (+++: <−6) |
| CN(C)Cc1ccccc1-c1csc(NC(=O)c2ccc(N3CCN(S(C)(=O)=O)CC3)cn2)n1 [Compound 460, N-(4-(2-((dimethylamino)methyl)phenyl)thiazol-2-yl)-5-(4-(methylsulfonyl)piperazin-1-yl)picolinamide hemiformate] | ++ (++: −5 to −6) |
| CC(=O)N1CCN(c2csc(C(=O)Nc3nc(-c4ccccc4Cl)cs3)c2)CC1 [Compound 462, 4-(4-acetylpiperazin-1-yl)-N-(4-(2-chlorophenyl)thiazol-2-yl)thiophene-2-carboxamide] | ++ (++: −5 to −6) |
| CC(=O)N1CCN(c2ccc(C(=O)Nc3nc(-c4ccccc4Cl)cs3)s2)CC1 [Compound 463, 5-(4-acetylpiperazin-1-yl)-N-(4-(2-chlorophenyl)thiazol-2-yl)thiophene-2-carboxamide] | +++ (+++: <−6) |
| CN1CCC[C@H]1C(=O)N1CCN(c2ccc(C(=O)Nc3nc(-c4ccccc4Cl)cs3)nc2)CC1 [Compound 466, N-(4-(2-chlorophenyl)thiazol-2-yl)-5-(4-(methylprolyl)piperazin-1-yl)picolinamide] | +++ (+++: <−6) |
| CN1CCCC(C(=O)N2CCN(c3ccc(C(=O)Nc4nc(-c5ccccc5Cl)cs4)nc3)CC2)C1 (stereo not drawn) [Compound 467, N-(4-(2-chlorophenyl)thiazol-2-yl)-5-(4-(1-methylpiperidine-3-carbonyl)piperazin-1-yl)picolinamide hemiformate] | +++ (+++: <−6) |
| COCc1ccccc1-c1csc(NC(=O)c2ccc(N3CCC(O)CC3)cn2)n1 [Compound 468, 5-(4-hydroxypiperidin-1-yl)-N-(4-(2-(methoxymethyl)phenyl)thiazol-2-yl)picolinamide] | +++ (+++: <−6) |
| CN1CCC(C(=O)N2CCN(c3ccc(C(=O)Nc4nc(-c5ccccc5Cl)cs4)nc3)CC2)C1 (stereo not drawn) [Compound 482, N-(4-(2-chlorophenyl)thiazol-2-yl)-5-(4-(1-methylpyrrolidine-3-carbonyl)piperazin-1-yl)picolinamide] | +++ (+++: <−6) |
| CN1CCC(C(=O)N2CCN(c3ccc(C(=O)Nc4nc(-c5ccccc5Cl)cs4)nc3)CC2)CC1 [Compound 483, N-(4-(2-chlorophenyl)thiazol-2-yl)-5-(4-(1-methylpiperidine-4-carbonyl)piperazin-1-yl)picolinamide] | +++ (+++: <−6) |

| SMILES | COL1 Efficacy (LogEC50) |
| --- | --- |
| CN1CCC[C@@H](C(=O)N2CCN(c3ccc(C(=O)Nc4nc(-c5ccccc5Cl)cs4)nc3)CC2)C1 [Compound 485, (R)—N-(4-(2-chlorophenyl)thiazol-2-yl)-5-(4-(1-methylpiperidine-3-carbonyl)piperazin-1-yl)picolinamide] | +++ (+++: <−6) |
| CN1CCC[C@H](C(=O)N2CCN(c3ccc(C(=O)Nc4nc(-c5ccccc5Cl)cs4)nc3)CC2)C1 [Compound 486, (S)—N-(4-(2-chlorophenyl)thiazol-2-yl)-5-(4-(1-methylpiperidine-3-carbonyl)piperazin-1-yl)picolinamide] | +++ (+++: <−6) |
| O=C(Nc1nc(-c2ccccc2Cl)cs1)c1ccc(Br)cc1 [compound 310] | +++ (+++: <−6) |
| O=C(Nc1nc(-c2cc(Cl)sc2Cl)cs1)c1ccc(Cl)cc1 [compound 311] | ++ (++: −5 to −6) |
| O=C(Nc1nc(-c2cc(Cl)sc2Cl)cs1)c1ccccc1 [compound 312] | ++ (++: −5 to −6) |
| Cc1ccc(C(=O)Nc2nc(-c3cc(Cl)sc3Cl)cs2)cc1 [compound 313] | +++ (+++: <−6) |
| CC(C)=CC(=O)Nc1nc(-c2cc(Cl)sc2Cl)cs1 [compound 314] | ++ (++: −5 to −6) |
| Cc1ccc(C(=O)Nc2nc(-c3ccccc3Cl)cs2)cn1 [compound 318, N-[4-(2-chlorophenyl)thiazol-2-yl]-6-methyl-pyridine-3-carboxamide] | +++ (+++: <−6) |
| Cc1ncc(C(=O)Nc2nc(-c3ccccc3Cl)cs2)cn1 [compound 320, N-[4-(2-chlorophenyl)thiazol-2-yl]-2-methyl-pyrimidine-5-carboxamide] | ++ (++: −5 to −6) |
| CN1CCN(c2ccc(C(=O)Nc3nc(-c4ccccc4Cl)cs3)cc2)CC1 [compound 322, N-[4-(2-chlorophenyl)thiazol-2-yl]-4-(4-methylpiperazin-1-yl)benzamide] | +++ (+++: <−6) |
| CN1CCC(C(=O)Nc2nc(-c3ccccc3Cl)cs2)CC1 [compound 324, N-[4-(2-chlorophenyl)thiazol-2-yl]-1-methyl-piperidine-4-carboxamide] | ++ (++: −5 to −6) |
| Cc1ccc(C(=O)Nc2nc(-c3ccccc3Cl)cs2)nc1 [compound 329, N-[4-(2-chlorophenyl)thiazol-2-yl]-5-methyl-pyridine-2-carboxamide] | ++ (++: −5 to −6) |
| COc1cnc(C(=O)Nc2nc(-c3ccccc3Cl)cs2)cn1 [compound 330, N-[4-(2-chlorophenyl)thiazol-2-yl]-5-methoxy-pyrazine-2-carboxamide] | ++ (++: −5 to −6) |
| O=C(Nc1nc(-c2ccccc2Cl)cs1)c1ccc(N2CCOCC2)cn1 [compound 339, N-[4-(2-chlorophenyl)thiazol-2-yl]-5-morpholino-pyridine-2-carboxamide] | +++ (+++: <−6) |
| COc1ncc(C(=O)Nc2nc(-c3ccccc3Cl)cs2)cn1 [compound 345, N-[4-(2-chlorophenyl)thiazol-2-yl]-2-methoxy-pyrimidine-5-carboxamide] | +++ (+++: <−6) |
| O=C(Nc1nc(-c2ccccc2Cl)cs1)c1ccc(N2CCOCC2)nc1 [compound 346, N-[4-(2-chlorophenyl)thiazol-2-yl]-6-morpholino-pyridine-3-carboxamide] | +++ (+++: <−6) |
| Cc1ccc(C(=O)Nc2nc(-c3cnccc3C)cs2)cn1 [compound 348, 6-methyl-N-[4-(4-methyl-3-pyridyl)thiazol-2-yl]pyridine-3-carboxamide] | + (+: >−5) |
| COc1ncc(C(=O)Nc2nc(-c3cnccc3C)cs2)cn1 [compound 349, 2-methoxy-N-[4-(4-methyl-3-pyridyl)thiazol-2-yl]pyrimidine-5-carboxamide] | − (−: inactive) |
